Results: patent publication US20240308976A1, “COMPOUNDS THAT MEDIATE PROTEIN DEGRADATION AND USES THEREOF” (Monte Rosa Therapeutics, Inc., priority 2021, published 2024)

Legend:
[1] = target: CRBN-DDB1 (Homo sapiens, UniProt Q96SW2); test: Compound binding to CRBN by HTRF assay; conditions: CRBN-DDB1 2.5 nM, Cy5-Thalidomide 100 nM, 30 min at ambient temperature; read-out: HTRF Class (Cereblon binding, HTRF IC50)
Method: Example 146: Compound Binding to CRBN by HTRF Assay
Compound activity was monitored in a Homogenous Time-Resolved Fluorescence (HTRF) assay using 1-[5-({2-[2-(2-{[2-(2,6-dioxopiperidin-3-yl)-1,3-dioxo-2,3-dihydro-1H-isoindol-4-yl]oxy}acetamido)ethoxy]ethyl}carbamoyl)pentyl]-3,3-dimethyl-2-[(1E,3E)-5-[(2E)-1,3,3-trimethyl-5-sulfo-2,3-dihydro-1H-indol-2-ylidene]penta-1,3-dien-1-yl]-3H-indol-1-ium-5-sulfonate as a fluorescent probe. Biochemical assays were conducted in Greiner white 384 well HiBase plates (Cat. No 784075-25) in 10 μL total volume. A one pot detection solution of CRBN-DDB1 (2.5 nM), Anti-His Terbium Cryptate Gold (1X, PerkinElmer Cat. #: 61HI2TLB), and Cy5-Thalidomide (100 nM, Tenova Cat.: T52461) was prepared in 20 mM HEPES, 20 mM NaCl, 0.2 mM TCEP, 0.2 mM EDTA, and 0.005% Tween20 was dispensed to each assay plate. Compounds were stored in dry, ambient temperatures at 10 mM. A 10-point, 1:3 dilution series was prepared from 10 mM stock concentrations in Echo-compatible LDV plates. 10 nL of each compound dilution series was dispensed into assays wells using an Echo 650 (Labcyte inc. USA). 10 nL of 10 mM Lenalidomide was transferred into the active-control wells for the assay and 10 nL of DMSO was transferred into the neutral-control wells. The assay was then allowed to incubate for 30 min at ambient temperature after transferring compound. Plate measurements were taken on a Pherastar FSX (BMG Labtech, Germany) using the HTRF Red filter (Ex. 337 nm, em1: 620 nm, em2: 665 nm) (Flashes: 50, Integration time: 60-400 us, Z-height: 10 mm, Ratio-multiplier: 10,000). The HTRF signal was then subsequently normalized to the neutral and active controls. Analysis and IC50 values were derived using KNIME analytics (KNIME Zurich) transformation and fitting within Collaborative Drug Discovery (Collaborative Drug Discovery USA). Ki was derived from the geometric mean of the IC50 values using the Cheng-Prustoff transformation.
(§1) In Table 2, each compound is assigned a class (HTRF class) indicating the ability for Cereblon binding by means of their HTRF IC50 values according to […]: A, B, C or D. According to the code, A represents an IC50 value of ≤100 nM, B represents an IC50 value>100 nM and ≤1000 nM, C represents an IC50 value>1000 nM. IF Class assigns each compound a code indicating the ability for GSPT1 degradation: A, B or C. According to the code, A represents a DC50 value of ≤30 nM, B represents a DC50 value>30 nM and ≤300 nM and C represents a DC50 value of >300 nM.

[2] = target: T1, GSPT1 (Homo sapiens, UniProt P15170+Q96SW2); test: Immunofluorescence assay for activity to degrade GSPT1 in CAL-51 cells; format: cell-based; conditions: 6 h treatment, read-out: IF Class (GSPT1 degradation, DC50)
T1 construct: CAL-51 cells were purchased from DSMZ (cat. Number ACC302); host or cells: CAL-51
Method: Example 147: Compound Activity by Immunofluorescence Assay
The representative compounds were tested in an immunofluorescence assay for their activity to degrade GSPT1. CAL-51 cells were purchased from DSMZ (cat. Number ACC302), sub-cultured in 90% Dulbecco's MEM (4.5 g/L glucose, Gibco 11965)+10% heat inactivated FBS (BioConcept, 2-01F136I) and incubated at 37° C., 5% CO2. For the assay imaging microtiter plate Cell Carrier 96 Ultra (Perkin Elmer 6055302) were pre-coated with Fibronectin (Sigma F085, 30 μL at 0.2 μg/mL) in PBS (100 μL, Gibco 14190) for 45 min at room temperature, rinsed with PBS and CAL-51 cells (30K cells/well) were plated and let to adhere overnight. Cells were treated with compounds typically using a serial dilution ranging from 30 μM to 0.1 nM for 6 h. Compounds were stored at 10 mM DMSO stocks. Vehicle (DMSO), positive (CC-885, 10 μM) and rescue controls (positive control plus 0.2 μM bortezomib) were also included at this stage. Cells were subsequently rinsed with PBS and fixed in 10% Formalin solution (50 μL, Sigma HT5011)) for 20 mins at room temperature. Following three consecutive PBS washes (100 μL), cells were permeabilized in 0.1% Triton X-100 in PBS (Sigma 93443, 50 μL) for 15 min. at room temperature. Following three further PBS washes, 50 μL blocking buffer (1% BSA, Sigma A4503, in PBS) was added for 45 min for signal-to noise reduction. Primary antibody (human GSPT1, Sigma HPA052488) was diluted in blocking buffer (dil.1/300, 35 μL/well) and incubated with the cells overnight at 4° C. After three PBS washes, Alexa-fluor 488 coupled secondary antibodies (Invitrogen, A32731, dil. 1/1000), Alexa-fluor 647-Phalloidin (Invitrogen, A22287, dil. 1/200) and DAPI (Thermo, #62248, dil. 1/1000) were diluted in blocking buffer and incubated with the samples for 2 h at room temperature. After three final PBS washes, samples were conserved in 100 μL PBS in the dark, until measurement. Image acquisition was performed on the Operetta High-Content Imager (Perkin-Elmer). Fluorescence intensity of […] (GSPT1), Alexa-Fluor 647 (Actin) and DAPI (Nucleus) were measured. For the determination of GSPT1 DC50 values, a custom algorithm implemented in the PerkinElmer image analysis software Harmony-Acapella® was developed. After user-defined setting of adjustment parameters, the analysis was run identically without human intervention for all image fields. DAPI staining of the nuclei was used to determine the location of cells using standard nuclei detection modules. Segmentation artifacts were removed by threshold-based filters for area, roundness and intensity. The outline of the cells was determined analogously from the sum of the normalized, smoothed DAPI and Actin channel, starting from each nucleus. The Alexa-Fluor 488 (GSPT1) signal intensity in each cell was finally measured, in order to obtain a Mean intensity per cell. GSPT1 degradation (DC50) was calculated after normalization to controls and data import in CDD vault Database, using non-linear regression.
as §1

T1 sequence (P15170 whole entry): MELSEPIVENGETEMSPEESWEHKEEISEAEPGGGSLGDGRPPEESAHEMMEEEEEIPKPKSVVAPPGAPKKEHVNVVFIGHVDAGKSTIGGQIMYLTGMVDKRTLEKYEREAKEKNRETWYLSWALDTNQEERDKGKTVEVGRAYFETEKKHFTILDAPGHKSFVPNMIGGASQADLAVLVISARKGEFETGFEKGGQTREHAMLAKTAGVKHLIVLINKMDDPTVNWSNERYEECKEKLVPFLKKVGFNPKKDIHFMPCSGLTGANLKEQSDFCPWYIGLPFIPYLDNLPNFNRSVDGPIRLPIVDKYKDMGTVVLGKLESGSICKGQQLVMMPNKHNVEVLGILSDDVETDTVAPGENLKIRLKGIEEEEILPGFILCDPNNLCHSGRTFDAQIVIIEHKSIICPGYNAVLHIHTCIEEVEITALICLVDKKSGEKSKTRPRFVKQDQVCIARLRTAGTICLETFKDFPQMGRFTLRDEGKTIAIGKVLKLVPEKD
T1 sequence (Q96SW2 whole entry): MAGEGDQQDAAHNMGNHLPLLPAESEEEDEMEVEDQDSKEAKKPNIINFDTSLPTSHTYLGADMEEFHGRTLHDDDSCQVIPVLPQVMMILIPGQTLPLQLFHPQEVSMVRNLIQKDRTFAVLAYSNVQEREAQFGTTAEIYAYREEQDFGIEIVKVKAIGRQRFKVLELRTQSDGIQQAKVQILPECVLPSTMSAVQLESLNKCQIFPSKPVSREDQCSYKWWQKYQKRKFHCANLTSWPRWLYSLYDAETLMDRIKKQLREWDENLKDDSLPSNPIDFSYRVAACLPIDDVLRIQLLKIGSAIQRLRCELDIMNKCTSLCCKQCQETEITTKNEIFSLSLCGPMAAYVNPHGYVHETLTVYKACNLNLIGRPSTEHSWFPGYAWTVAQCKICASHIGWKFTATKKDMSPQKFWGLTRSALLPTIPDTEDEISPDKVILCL
T1 sequence (Q16531 2-1140 partner limits assumed): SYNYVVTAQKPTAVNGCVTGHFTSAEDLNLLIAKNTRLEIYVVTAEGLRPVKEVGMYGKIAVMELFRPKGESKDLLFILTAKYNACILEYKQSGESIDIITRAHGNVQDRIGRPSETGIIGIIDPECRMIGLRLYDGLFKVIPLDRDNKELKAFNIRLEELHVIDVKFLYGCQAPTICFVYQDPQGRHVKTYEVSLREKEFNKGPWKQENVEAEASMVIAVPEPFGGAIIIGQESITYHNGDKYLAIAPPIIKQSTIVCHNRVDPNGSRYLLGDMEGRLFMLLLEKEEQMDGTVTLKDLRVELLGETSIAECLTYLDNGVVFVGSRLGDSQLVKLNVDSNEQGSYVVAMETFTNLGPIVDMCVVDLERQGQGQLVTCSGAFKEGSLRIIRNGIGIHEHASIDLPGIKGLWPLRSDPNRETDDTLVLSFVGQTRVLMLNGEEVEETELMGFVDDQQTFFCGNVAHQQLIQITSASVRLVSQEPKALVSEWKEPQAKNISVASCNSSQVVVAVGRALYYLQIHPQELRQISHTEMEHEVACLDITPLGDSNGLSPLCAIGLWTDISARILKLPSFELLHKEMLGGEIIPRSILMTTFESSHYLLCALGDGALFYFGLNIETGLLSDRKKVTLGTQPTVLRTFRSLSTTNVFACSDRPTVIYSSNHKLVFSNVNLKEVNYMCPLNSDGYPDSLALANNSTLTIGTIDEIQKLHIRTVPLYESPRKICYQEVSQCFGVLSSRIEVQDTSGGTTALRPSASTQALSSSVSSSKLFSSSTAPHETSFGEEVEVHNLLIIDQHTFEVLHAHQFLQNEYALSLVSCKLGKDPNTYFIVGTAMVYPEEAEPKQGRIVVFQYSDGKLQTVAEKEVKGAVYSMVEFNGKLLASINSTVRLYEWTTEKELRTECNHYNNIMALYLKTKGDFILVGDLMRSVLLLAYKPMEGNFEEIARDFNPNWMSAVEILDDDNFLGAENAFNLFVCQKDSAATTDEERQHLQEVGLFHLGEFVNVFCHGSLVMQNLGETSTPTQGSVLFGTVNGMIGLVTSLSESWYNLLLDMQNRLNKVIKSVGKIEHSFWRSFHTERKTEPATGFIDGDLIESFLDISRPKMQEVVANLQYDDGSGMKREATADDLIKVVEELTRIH
Chain of CRBN-DDB1 (Q96SW2 whole entry): as the sequence (Q96SW2 whole entry) above
Chain of CRBN-DDB1 (Q16531 whole entry partner): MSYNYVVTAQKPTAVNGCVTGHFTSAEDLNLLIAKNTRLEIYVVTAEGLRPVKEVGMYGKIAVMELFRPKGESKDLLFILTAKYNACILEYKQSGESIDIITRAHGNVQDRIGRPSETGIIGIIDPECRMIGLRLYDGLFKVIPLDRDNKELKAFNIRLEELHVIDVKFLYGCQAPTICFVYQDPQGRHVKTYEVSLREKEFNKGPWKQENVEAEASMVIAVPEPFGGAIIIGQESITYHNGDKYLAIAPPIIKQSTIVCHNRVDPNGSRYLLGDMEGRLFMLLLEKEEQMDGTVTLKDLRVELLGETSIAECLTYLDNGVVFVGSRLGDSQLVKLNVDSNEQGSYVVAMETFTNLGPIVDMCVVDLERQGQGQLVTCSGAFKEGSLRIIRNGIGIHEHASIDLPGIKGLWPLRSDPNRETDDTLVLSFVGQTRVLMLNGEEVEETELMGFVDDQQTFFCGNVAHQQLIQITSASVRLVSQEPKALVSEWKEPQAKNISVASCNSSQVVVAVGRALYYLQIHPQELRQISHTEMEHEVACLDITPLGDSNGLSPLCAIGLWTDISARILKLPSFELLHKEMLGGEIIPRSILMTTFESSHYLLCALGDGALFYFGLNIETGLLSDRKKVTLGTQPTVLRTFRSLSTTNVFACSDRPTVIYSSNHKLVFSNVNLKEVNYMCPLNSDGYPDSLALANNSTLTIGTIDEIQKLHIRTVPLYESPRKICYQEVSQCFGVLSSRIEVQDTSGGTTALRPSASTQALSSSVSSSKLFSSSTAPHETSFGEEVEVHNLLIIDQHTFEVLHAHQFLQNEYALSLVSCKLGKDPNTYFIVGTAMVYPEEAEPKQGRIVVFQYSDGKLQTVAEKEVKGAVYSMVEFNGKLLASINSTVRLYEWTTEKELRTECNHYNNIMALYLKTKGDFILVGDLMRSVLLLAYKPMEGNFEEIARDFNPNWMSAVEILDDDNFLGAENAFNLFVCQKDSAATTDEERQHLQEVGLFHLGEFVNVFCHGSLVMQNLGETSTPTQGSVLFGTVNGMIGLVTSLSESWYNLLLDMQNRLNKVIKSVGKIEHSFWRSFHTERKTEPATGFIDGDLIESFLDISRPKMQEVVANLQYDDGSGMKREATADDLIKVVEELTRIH

## Cc1ccc(NC(=O)NC2CN(c3cc(F)c(C4CCC(=O)NC4=O)c(F)c3)C2)cc1Cl (centres unmarked) [Compound 1, 1-(3-chloro-4-methylphenyl)-3-(1-(4-(2,6-dioxopiperidin-3-yl)-3,5-difluorophenyl)azetidin-3-yl)urea]
[1]
  IC50: 0.1 to 1 µM
[2]
  DC50: ≤ 0.03 µM

## Cc1ccc(NC(=O)OC2CN(c3cc(F)c(C4CCC(=O)NC4=O)c(F)c3)C2)cc1Cl (centres unmarked) [Compound 2, 1-(4-(2,6-dioxopiperidin-3-yl)-3,5-difluorophenyl)azetidin-3-yl(3-chloro-4-methylphenyl) carbamate]
[1]
  IC50: 0.1 to 1 µM
[2]
  DC50: ≤ 0.03 µM

## O=C1CCC(c2c(F)cc(N3CC(OC(=O)Nc4cccc(OC(F)(F)F)c4)C3)cc2F)C(=O)N1 (centres unmarked) [Compound 3, 1-(4-(2,6-dioxopiperidin-3-yl)-3,5-difluorophenyl)azetidin-3-yl(3-(trifluoromethoxy)phenyl) carbamate]
[1]
  IC50: 0.1 to 1 µM
[2]
  DC50: ≤ 0.03 µM

## O=C1CCC(c2c(F)cc(N3CC(OC(=O)NC45CCC(CC4)CC5)C3)cc2F)C(=O)N1 (centres unmarked) [Compound 98, 1-(4-(2,6-dioxopiperidin-3-yl)-3,5-difluorophenyl)azetidin-3-yl bicyclo[2.2.2]octan-1-ylcarbamate]
[2]
  DC50: ≤ 0.03 µM

## O=C1CCC(c2c(F)cc(N3CC(OC(=O)N4CC5(COC5)C4)C3)cc2F)C(=O)N1 (centres unmarked) [Compound 105, 1-(4-(2,6-dioxopiperidin-3-yl)-3,5-difluorophenyl)azetidin-3-yl 2-oxa-6-azaspiro[3.3]heptane-6-carboxylate]
[2]
  DC50: > 0.3 µM

## O=C1CCC(c2c(F)cc(N3CC(OC(=O)NCC45C[C@H]6C[C@@H](C4)C[C@@H](C5)C6)C3)cc2F)C(=O)N1 (stereo partly drawn) [Compound 106, 1-(4-(2,6-dioxopiperidin-3-yl)-3,5-difluorophenyl)azetidin-3-yl((3R,5R,7R)-adamantan-1-ylmethyl) carbamate]
[2]
  DC50: ≤ 0.03 µM

## O=C1CCC(c2c(F)cc(N3CC(OC(=O)NC4[C@H]5C[C@@H]6C[C@@H](C[C@H]4C6)C5)C3)cc2F)C(=O)N1 (stereo partly drawn) [Compound 107, 1-(4-(2,6-dioxopiperidin-3-yl)-3,5-difluorophenyl)azetidin-3-yl (1R,3S,5R,7R)-adamantan-2-ylcarbamate]
[2]
  DC50: 0.03 to 0.3 µM

## COCC(COC)NC(=O)OC1CN(c2cc(F)c(C3CCC(=O)NC3=O)c(F)c2)C1 (centres unmarked) [Compound 108, 1-(4-(2,6-dioxopiperidin-3-yl)-3,5-difluorophenyl)azetidin-3-yl (1,3-dimethoxypropan-2-yl)carbamate]
[2]
  DC50: > 0.3 µM

## O=C1CCC(c2c(F)cc(N3CC(OC(=O)NCCC(F)(F)F)C3)cc2F)C(=O)N1 (centres unmarked) [Compound 109, 1-(4-(2,6-dioxopiperidin-3-yl)-3,5-difluorophenyl)azetidin-3-yl (3,3,3-trifluoropropyl)carbamate]
[2]
  DC50: > 0.3 µM

## O=C1CCC(c2c(F)cc(N3CC(NC(=O)N[C@@H]4CCC(F)(F)C4)C3)cc2F)C(=O)N1 (stereo partly drawn) [Compound 111, 1-((R)-3,3-difluorocyclopentyl)-3-(1-(4-(2,6-dioxopiperidin-3-yl)-3,5-difluorophenyl)azetidin-3-yl)urea]
[2]
  DC50: > 0.3 µM

## O=C1CCC(c2c(F)cc(N3CC(OC(=O)NC45CCC(C4)C5)C3)cc2F)C(=O)N1 (centres unmarked) [Compound 112, 1-(4-(2,6-dioxopiperidin-3-yl)-3,5-difluorophenyl)azetidin-3-ylbicyclo[2.1.1]hexan-1-ylcarbamate]
[2]
  DC50: 0.03 to 0.3 µM

## CN1CCC(CNC(=O)OC2CN(c3cc(F)c(C4CCC(=O)NC4=O)c(F)c3)C2)CC1 (centres unmarked) [Compound 114, 1-(4-(2,6-dioxopiperidin-3-yl)-3,5-difluorophenyl)azetidin-3-yl((1-methylpiperidin-4-yl)methyl)carbamate]
[2]
  DC50: > 0.3 µM

## C[C@H](NC(=O)OC1CN(c2cc(F)c(C3CCC(=O)NC3=O)c(F)c2)C1)C1CCCCC1 (stereo partly drawn) [Compound 115, 1-(4-(2,6-dioxopiperidin-3-yl)-3,5-difluorophenyl)azetidin-3-yl((S)-1-cyclohexylethyl)carbamate]
[2]
  DC50: ≤ 0.03 µM

## O=C1CCC(c2c(F)cc(N3CC(OC(=O)NC4CCSCC4)C3)cc2F)C(=O)N1 (centres unmarked) [Compound 116, 1-(4-(2,6-dioxopiperidin-3-yl)-3,5-difluorophenyl)azetidin-3-yl(tetrahydro-2H-thiopyran-4-yl)carbamate]
[2]
  DC50: ≤ 0.03 µM

## O=C1CCC(c2c(F)cc(N3CC(OC(=O)NCC4CCOCC4)C3)cc2F)C(=O)N1 (centres unmarked) [Compound 117, 1-(4-(2,6-dioxopiperidin-3-yl)-3,5-difluorophenyl)azetidin-3-yl ((tetrahydro-2H-pyran-4-yl)methyl)carbamate]
[2]
  DC50: > 0.3 µM

## CSCCNC(=O)OC1CN(c2cc(F)c(C3CCC(=O)NC3=O)c(F)c2)C1 (centres unmarked) [Compound 118, 1-(4-(2,6-dioxopiperidin-3-yl)-3,5-difluorophenyl)azetidin-3-yl(2-(methylthio)ethyl)carbamate]
[2]
  DC50: > 0.3 µM

## CO[C@H]1CC[C@@H](NC(=O)OC2CN(c3cc(F)c(C4CCC(=O)NC4=O)c(F)c3)C2)CC1 (stereo partly drawn) [Compound 119, 1-(4-(2,6-dioxopiperidin-3-yl)-3,5-difluorophenyl) azetidin-3-yl ((1S,4S)-4-methoxycyclohexyl) carbamate]
[2]
  DC50: > 0.3 µM

## CC(C)N1CCC(NC(=O)NC2CN(c3cc(F)c(C4CCC(=O)NC4=O)c(F)c3)C2)C1 (centres unmarked) [Compound 120, 1-(1-(4-(2,6-dioxopiperidin-3-yl)-3,5-difluorophenyl)azetidin-3-yl)-3-(1-isopropylpyrrolidin-3-yl) urea]
[2]
  DC50: > 0.3 µM

## CN1CCC(NC(=O)NC2CN(c3cc(F)c(C4CCC(=O)NC4=O)c(F)c3)C2)C1 (centres unmarked) [Compound 121, 1-(1-(4-(2,6-dioxopiperidin-3-yl)-3,5-difluorophenyl)azetidin-3-yl)-3-(1-methylpyrrolidin-3-yl)urea]
[2]
  DC50: > 0.3 µM

## CCC(C)CNC(=O)OC1CN(c2cc(F)c(C3CCC(=O)NC3=O)c(F)c2)C1 (centres unmarked) [Compound 122, 1-(4-(2,6-dioxopiperidin-3-yl)-3,5-difluorophenyl) azetidin-3-yl (2-methylbutyl)carbamate]
[2]
  DC50: 0.03 to 0.3 µM
